From ChEMBL document CHEMBL1201862, “PubChem BioAssay data set” (2004)
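Dose response: 5 concentrations. Exposure: 48 h. Format: 96-well plates. Endpoint: linear interpolation; highest concentration if not reached. Here, GI50 denotes the concentration required for 50% inhibition of growth.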 The source made the active and inactive calls. Cut-off read from the data, not from the text of the source: active = GI50 up to about 1.1 µM and inactive = higher.

Experiments:
Test in all cases: DTP human tumour cell line panel, 48 h
SK-MEL-5 = test system: SK-MEL-5
UACC-62 = test system: UACC-62
SK-MEL-28 = test system: SK-MEL-28
HCC 2998 = test system: HCC 2998
K562 = test system: K562
SNB-19 = test system: SNB-19
SF-295 = test system: SF-295
NCI-H226 = test system: NCI-H226
IGROV-1 = test system: IGROV-1
CCRF-CEM = test system: CCRF-CEM
KM12 = test system: KM12
SN12C = test system: SN12C
HOP-92 = test system: HOP-92
SK-OV-3 = test system: SK-OV-3
SR = test system: SR

SMILES | GI50 (SK-MEL-5) | GI50 (UACC-62) | GI50 (SK-MEL-28) | GI50 (HCC 2998) | GI50 (K562) | GI50 (SNB-19) | GI50 (SF-295) | GI50 (NCI-H226) | GI50 (IGROV-1) | GI50 (CCRF-CEM) | GI50 (KM12) | GI50 (SN12C) | GI50 (HOP-92) | GI50 (SK-OV-3) | GI50 (SR)
CC1(C)C(c2ccccc2)C12CCC1(C2=O)C(c2ccccc2)C1(C)C (stereo unspecified) | 18.7 µM (inactive) | 32 µM (inactive) | 27.2 µM (inactive) | 18.4 µM (inactive) | 20 µM (inactive) | 28.8 µM (inactive) | 19.4 µM (inactive) | 17.9 µM (inactive) | 31.8 µM (inactive) | 18.9 µM (inactive) | > 10 µM (inactive) | 27.1 µM (inactive) | 11.7 µM (inactive) |  | 
Cc1cc(Cl)ccc1NC(=O)CC1SC(N)=NC1=O (stereo unspecified) | > 100 µM (inactive) | > 100 µM (inactive) | > 100 µM (inactive) | > 100 µM (inactive) | > 100 µM (inactive) | > 100 µM (inactive) | > 100 µM (inactive) | > 100 µM (inactive) | > 100 µM (inactive) | 66.4 µM (inactive) | > 100 µM (inactive) | > 100 µM (inactive) |  | > 100 µM (inactive) | 
Nc1nc2ncn(CCO)c2c(=S)[nH]1 | > 100 µM (inactive) | > 100 µM (inactive) | > 100 µM (inactive) | > 100 µM (inactive) | > 100 µM (inactive) | > 100 µM (inactive) | > 100 µM (inactive) | > 100 µM (inactive) | > 100 µM (inactive) | > 100 µM (inactive) | > 100 µM (inactive) | > 100 µM (inactive) | > 100 µM (inactive) | > 100 µM (inactive) | 
CC(C)CC(=O)N1CCN(C(=O)CC(C)C)c2ccccc21 |  |  | > 100 µM (inactive) | > 100 µM (inactive) | > 100 µM (inactive) | > 100 µM (inactive) | > 100 µM (inactive) |  | > 100 µM (inactive) | > 100 µM (inactive) | > 100 µM (inactive) |  | > 100 µM (inactive) | > 100 µM (inactive) | 
O=C1[C@@H](c2ccc(Cl)cc2)[C@H]2CC=C[C@H]2N1O | > 100 µM (inactive) | > 100 µM (inactive) | > 100 µM (inactive) | 52.8 µM (inactive) | > 100 µM (inactive) | > 100 µM (inactive) | > 100 µM (inactive) | > 100 µM (inactive) | > 100 µM (inactive) | 51.2 µM (inactive) | > 100 µM (inactive) | > 100 µM (inactive) |  | > 100 µM (inactive) | 
CCc1cccc(C)c1NC(=O)NS(=O)(=O)c1ccc(C)cc1 | > 100 µM (inactive) | > 100 µM (inactive) | > 100 µM (inactive) | > 100 µM (inactive) | > 100 µM (inactive) | > 100 µM (inactive) | > 100 µM (inactive) |  | > 100 µM (inactive) | > 100 µM (inactive) | > 100 µM (inactive) | > 100 µM (inactive) | > 100 µM (inactive) | > 100 µM (inactive) | 
CC1=C2C(c3ccccc3)(c3ccccc3)C3C=CC2(C=N3)N(C(=O)NC2CCCCC2)C1=O (stereo unspecified) | 16.8 µM (inactive) | 18.7 µM (inactive) | 16.7 µM (inactive) | 17.9 µM (inactive) | 17.5 µM (inactive) | 17.6 µM (inactive) | 16.9 µM (inactive) |  | 18.9 µM (inactive) | 16.5 µM (inactive) | 18.1 µM (inactive) | 17.6 µM (inactive) | 13.4 µM (inactive) | 28.7 µM (inactive) | 17.1 µM (inactive)
CCNC1=Nc2ccc(Cl)cc2C(c2ccccc2)=NN1 | 14.8 µM (inactive) | 14.6 µM (inactive) | 17.5 µM (inactive) | 18.7 µM (inactive) | 6.38 µM (inactive) | 41.7 µM (inactive) | 19.2 µM (inactive) | 20.7 µM (inactive) | 22.4 µM (inactive) | 38.4 µM (inactive) | 12.9 µM (inactive) | 32.4 µM (inactive) | 24.4 µM (inactive) | 37.1 µM (inactive) | 
CSc1nc2c(c(O)c(C)c(=O)n2C2OC(COC(C)=O)C(OC(C)=O)C(OC(C)=O)C2OC(C)=O)c(=O)n1C (stereo unspecified) | > 100 µM (inactive) | > 100 µM (inactive) | > 100 µM (inactive) | > 100 µM (inactive) | > 100 µM (inactive) | > 100 µM (inactive) | > 100 µM (inactive) | > 100 µM (inactive) | > 100 µM (inactive) | > 100 µM (inactive) | > 100 µM (inactive) | > 100 µM (inactive) | > 100 µM (inactive) | > 100 µM (inactive) | 
Cc1ccc(C2=C(c3ccccc3)C(O)(c3ccccc3)C(c3ccccc3)=C2c2ccc(C)cc2)cc1 | > 100 µM (inactive) |  | > 100 µM (inactive) | > 100 µM (inactive) | > 100 µM (inactive) | > 100 µM (inactive) | 35.6 µM (inactive) | > 100 µM (inactive) | > 100 µM (inactive) | > 10 µM (inactive) | > 100 µM (inactive) | > 100 µM (inactive) |  | > 100 µM (inactive) | > 100 µM (inactive)
O=[N+]([O-])c1c(/C=N/c2ccccc2)oc(-c2ccc3c(c2)OCO3)c1-c1ccc2c(c1)OCO2 | > 100 µM (inactive) | > 100 µM (inactive) | > 100 µM (inactive) | > 100 µM (inactive) | > 100 µM (inactive) | > 100 µM (inactive) | > 100 µM (inactive) | 48.8 µM (inactive) | > 100 µM (inactive) |  | > 100 µM (inactive) | > 100 µM (inactive) | 65.6 µM (inactive) | 44.9 µM (inactive) | > 100 µM (inactive)
O=C(O)COc1ccc(C(=O)/C(SS/C(C(=O)c2ccc(OCC(=O)O)c(Cl)c2Cl)=C2\C=C(c3ccc(Cl)cc3)SS2)=C2/C=C(c3ccc(Cl)cc3)SS2)c(Cl)c1Cl | 16.7 µM (inactive) | 9.51 µM (inactive) | 25.2 µM (inactive) | 12.4 µM (inactive) | 2.43 µM (inactive) | 8.99 µM (inactive) | 18.2 µM (inactive) | 5.66 µM (inactive) | 13.3 µM (inactive) | 2.29 µM (inactive) | 16 µM (inactive) | 0.319 µM (active) | 4.22 µM (inactive) | 56.1 µM (inactive) | 
CN(C)c1ccc(Cc2cc(C(C)(C)C)cc(C(C)(C)C)c2O)cc1 | 15.6 µM (inactive) | 14.7 µM (inactive) | 20.3 µM (inactive) | 19.6 µM (inactive) | 11.7 µM (inactive) | 21.6 µM (inactive) | 18.9 µM (inactive) |  | 18 µM (inactive) | 60.1 µM (inactive) | 12.2 µM (inactive) | 16.1 µM (inactive) |  | 29.3 µM (inactive) | 14.6 µM (inactive)
c1ccc([B-]23Oc4ccccc4[NH+]2c2ccccc2O3)cc1 (stereo unspecified) | > 100 µM (inactive) | > 100 µM (inactive) | > 100 µM (inactive) |  | 36.2 µM (inactive) | > 100 µM (inactive) | > 100 µM (inactive) | > 100 µM (inactive) | > 100 µM (inactive) | 29.6 µM (inactive) | 77.6 µM (inactive) | > 100 µM (inactive) | > 100 µM (inactive) | > 100 µM (inactive) | 37 µM (inactive)
